The values below are quoted from earlier work in US20230310434A1, “METHODS OF REDUCING THE LIKELIHOOD OF CARCINOID HEART DISEASE IN PATIENTS WITH NEUROENDOCRINE TUMORS” (TerSera Therapeutics LLC, priority 2022, published 2023).

In data set [1] the test system is patients with carcinoid syndrome (CS) diarrhea. Particulars: TELECAST
Data set [2] has as its system patients with carcinoid syndrome not adequately controlled with SSA therapy. Particulars: TELESTAR; TE 250 or 500 mg three times daily; patients on stable dose SSA.
Where [3] appears, read: TE 250 or 500 mg three times daily, patients on stable dose SSA.

SMILES strings stand for the structures.

`CCOC(=O)[C@@H](N)Cc1ccc(-c2cc(O[C@H](c3ccc(Cl)cc3-n3ccc(C)n3)C(F)(F)F)nc(N)n2)cc1` [TE, (S)-ethyl 2-amino-3-(4-(2-amino-6-((R)-1-(4-chloro-2-(3-methyl-1H-pyrazol-1-yl)phenyl)-2,2,2-trifluoroethoxy)pyrimidin-4-yl)phenyl)propanoate]: the “efficacy when added to SSAs to treat carcinoid syndrome diarrhea” value in data set [1] (TE 250 or 500 mg three times daily added to SSAs) is “effective”. Also, in data set [1] (setting [3]), the “frequency of bowel movements” value is given as “reduced” and the “urinary 5-HIAA levels” value is reported as “reduced”. Moreover, in data set [2], the “frequency of bowel movements” value was “reduced” and the “urinary 5-HIAA levels” value is on record as “reduced”.
